The record followed here is patent publication US4218443A, “Polyether ionophores as antiobesity and hypotriglyceridemic agents” (Hoffmann-La Roche Inc., priority 1979, dated 1980).

Read-outs that look alike come from different tables or passages of the source.

One test addresses T1, pancreatic lipase (Rattus norvegicus, UniProt P27657).
T1 construct: stimulated to release pancreatic proteins by addition of 10^-5 M carbachol; from tissue; host or cells: pancreatic lobules of fasted Charles River female rats; released pancreatic juice, centrifuged
T1 sequence (P27657 17-465): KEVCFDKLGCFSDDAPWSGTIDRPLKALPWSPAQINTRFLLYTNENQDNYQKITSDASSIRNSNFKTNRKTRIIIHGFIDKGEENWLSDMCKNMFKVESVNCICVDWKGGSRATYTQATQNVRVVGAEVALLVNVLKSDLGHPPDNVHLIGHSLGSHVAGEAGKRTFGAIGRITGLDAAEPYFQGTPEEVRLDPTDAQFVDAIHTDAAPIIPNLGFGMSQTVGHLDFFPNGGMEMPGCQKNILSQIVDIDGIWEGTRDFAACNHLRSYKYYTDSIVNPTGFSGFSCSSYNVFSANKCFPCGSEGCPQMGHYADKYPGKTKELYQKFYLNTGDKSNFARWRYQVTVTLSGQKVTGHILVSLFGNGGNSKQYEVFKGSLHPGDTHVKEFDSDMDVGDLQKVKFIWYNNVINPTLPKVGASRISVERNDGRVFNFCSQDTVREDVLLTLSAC
As to the kind of experiment: In vitro pancreatic lipase screen ([14C]-triolein assay). The class given is biochemical. Conditions: read-out: Pancreatic Lipase Activity I50. As to the method: The method for assaying pacreatic lipase in vitro using [^14 C]-triolein was based on the method of Garfinkel and Schotz for lipoprotein lipase, [A. S. Garfinkel and M. C. Schotz (1972). […] Glycerol tri[1-^14 C]oleate (32 mM) was emulsified in 0.2 M Tris-HCl pH 8 containing 0.15 M NaCl, bovine serum albumin (15 mg/ml) and sodium taurocholate (1.4 mM) by sonication for three, one min intervals at 80 watts. Final assay volume was 1.0 ml. The reaction was initiated by the addition of enzyme and was allowed to proceed for 10 min. The reaction was linear for up to 20 min. The liberated free fatty acids were extracted into 0.1 M KOH and quantitated in a liquid scintillation counter using 2,5-bis-2-(5-tertbutylbenzoxazolyl)-tniophene (BBOT) scintillation fluid (Yorktown Research, South Hackensack, N.J.).
Ionophores were added to the above assay as solutions in either 90% ethanol or water, pH 8; 90% ethanol had no effect on the enzyme activity assayed by either method.

The test system of test [1] is fatty acid synthesis in isolated hepatocytes. As to the kind of experiment: In vitro fatty acid synthesis in isolated hepatocytes. The class given is cell-based, Charles River female rat. Conditions: for activity at 1 µM / activity at 5 µM / activity at 10 µM / activity at 100 µM / activity at 250 µM / activity at 500 µM / activity at 1000 µM / activity at 2000 µM: Rattus norvegicus, Hepatocyte, 1 h, pH 7.4; for activity at 1 µM: 0.001 mM; for activity at 5 µM: 0.005 mM; for activity at 10 µM: 0.010 mM; for activity at 100 µM: 0.100 mM; for activity at 250 µM: 0.250 mM; for activity at 500 µM: 0.5 mM; for activity at 2000 µM: 2.000 mM. As to the method: Hepatocytes were prepared from meal-fed Charles River female rats as described previously, [A. C. Sullivan, J. Triscari, J. G. Hamilton and J. A. Ontko (1977). Hypolipidemic activity of (-)-hydroxycitrate, Lipids, 12: 1-9]. Briefly, rats were anesthetized with Nembutal, livers were perfused in situ and hepatocytes were isolated in Krebs-Henseleit bicarbonate buffer, pH 7.4. Incubations with isolated hepatocytes were performed in triplicate at 37° C. Each incubation flask contained in a total volume of 2.1 ml, 10.5 mg cells (dry weight), 1 ml of Krebs-Henseleit buffer, pH 7.4, radioactive substrate (1 μCi [U-^14 C]alanine, 1 mCi^3 H2 O and 1 μmole alanine) and 0.3% glucose. The appropriate concentration of inhibitor was prepared in dimethylsulfoxide and added to the incubation flask. Dimethylsulfoxide had no effect on fatty acid synthesis. ^3 H2 O was used to determine the total rate of fatty acid synthesis independently of carbon precursors of acetyl CoA. [^14 C]alanine was used as an acetyl CoA precursor. Rates of fatty acid synthesis were determined as described previously, [A. C. Sullivan, J. Triscari, J. G. Hamilton and J. A. Ontko (1977). Hypolipidemic activity of (-)-hydroxycitrate, Lipids, 12: 1-9]. Data are expressed as nmoles ^3 H2 O or [^14 C]alanine converted into fatty acids per mg dry weight cells in 60 minutes.

Where [2] appears, read: read-out: Fatty Acid Synthesis 3H2O.
[3] abbreviates: read-out: Fatty Acid Synthesis [14C]alanine.
[4] abbreviates: 1.0 mM, read-out: Fatty Acid Synthesis 3H2O.
[5] abbreviates: 1.0 mM, read-out: Fatty Acid Synthesis [14C]alanine.

Regarding `CO[C@H]1CC[C@H](O[C@@H]2C[C@@H]([C@@H](C)/C=C(\C)C(=O)[C@H](C)C[C@H](C)C(=O)O)O[C@@]3(CC[C@@](C)([C@H]4CC[C@@H](C)[C@@]5(O[C@@H]([C@H]6O[C@@](O)(CO)[C@H](C)C[C@@H]6C)C[C@@H]5C)O4)O3)[C@@H]2C)O[C@@H]1C` [A-130A (Lenoremycin)], the IC50 on pancreatic lipase worked out at 150 µM.

In the case of `CNc1ccc2oc(C[C@H]3O[C@@]4(CC[C@H]3C)O[C@H]([C@H](C)C(=O)c3ccc[nH]3)[C@H](C)C[C@H]4C)nc2c1C(=O)O` [Calcimycin], in test [1] (1.0 mM), the “Fatty Acid Synthesis 3H2O” value was 48 % of control and the “Fatty Acid Synthesis [14C]alanine” value is given as 0 % of control.

As for `CC[C@@H](C(=O)[C@@H](C)[C@@H](O)[C@H](C)CCc1c(Cl)cc(C)c(O)c1C(=O)O)[C@H]1O[C@](CC)([C@H]2CC[C@](O)(CC)[C@H](C)O2)C[C@@H]1C` [Chlorolasalocid], the IC50 on pancreatic lipase amounted to 7000 µM.

Take `CCC(C(=O)O)C1CCC(C)C(C(C)C(O)C(C)C(=O)C(CC)C2OC3(C=CCC4(CCC(C)(C5CCC(O)(CC)C(C)O5)O4)O3)C(C)CC2C)O1` (stereo not drawn) [Deoxy-(0-8)-epi-17-salinomycin]: the IC50 on pancreatic lipase was found to be 600 µM.

In the case of `CC[C@@H](C(=O)[C@@H](C)[C@@H](O)[C@H](C)CCc1c([N+](=O)[O-])cc(C)c(O)c1[N+](=O)[O-])[C@H]1O[C@](CC)([C@H]2CC[C@](O)(CC)[C@H](C)O2)C[C@@H]1C` [Dinitrodescarboxylasalocid,Sodium], in test [1] (setting [2]), the activity at 1 µM worked out at 113%, the activity at 5 µM worked out at 116%, the activity at 10 µM amounted to 160% and the activity at 100 µM was 2%. For the same molecule, in test [1] (setting [2]), the activity at 250 µM turned out to be 3%, the activity at 500 µM was 3% and the activity at 2000 µM amounted to 7%. Moreover, in test [1] (setting [3]), the activity at 1 µM came to 102%, the activity at 5 µM is 117%, the activity at 10 µM was 169% and the activity at 100 µM amounted to 0%. In addition, in test [1] (setting [3]), the activity at 250 µM is 0%, the activity at 500 µM worked out at 0% and the activity at 2000 µM stood at 0%. The activity at 1000 µM in test [1] (setting [4]) turned out to be 4%. Also, the activity at 1000 µM in test [1] (setting [5]) was found to be 0%.

In the case of `CC[C@@H](C(=O)[C@@H](C)[C@@H](O)[C@H](C)CCc1c(I)cc(C)c(O)c1C(=O)O)[C@H]1O[C@](CC)([C@H]2CC[C@](O)(CC)[C@H](C)O2)C[C@@H]1C` [Iodolasalocid], on pancreatic lipase, the IC50 was 260 µM.

Turning to `C[C@H](CCC(=O)O)C[C@H](C)C[C@H](C)C(=O)/C=C(\O)[C@H](C)C[C@H](C)C/C=C/[C@@H](C)[C@@H](O)[C@@H](C)[C@@H](O)C[C@@H]1CC[C@@](C)([C@H]2CC[C@@](C)([C@@H](C)O)O2)O1` [Ionomycin], at pancreatic lipase, the IC50 was 960 µM.

On to `CCC(C(=O)C(C)C(O)C(C)CCc1ccc(C)c(O)c1C(=O)O)C1OC(CC)(C2CCC(CC)(C(C)O)O2)CC1C` (stereo not drawn) [Isolasalocid A], for which, at pancreatic lipase, the IC50 was found to be 390 µM.

In the case of `CC[C@@H](C(=O)[C@@H](C)[C@@H](O)[C@H](C)CCc1ccc(C)c(OC(=O)c2ccc(Br)cc2)c1C(=O)O)[C@H]1O[C@](CC)([C@H]2CC[C@](O)(CC)[C@H](C)O2)C[C@@H]1C` [Lasalocid 4-bromo benzoate], on pancreatic lipase, the IC50 stood at 130 µM.

Consider `CC[C@@H](C(=O)[C@@H](C)[C@@H](O)[C@H](C)CCc1ccc(C)c(O)c1C(=O)O)[C@H]1O[C@](CC)([C@H]2CC[C@](O)(CC)[C@H](C)O2)C[C@@H]1C` [Lasalocid,Sodium], for which, in test [1] (setting [2]), the activity at 1 µM was determined as 97%, the activity at 5 µM amounted to 74%, the activity at 10 µM came to 61% and the activity at 100 µM came to 4%. In test [1] (setting [2]), the activity at 250 µM stood at 6% and the activity at 500 µM was 7%. Further, in test [1] (setting [3]), the activity at 1 µM came out at 88%, the activity at 5 µM is 66%, the activity at 10 µM came out at 66% and the activity at 100 µM is 0%. Besides, in test [1] (setting [3]), the activity at 250 µM came to 1% and the activity at 500 µM was determined as 3%. The activity at 1000 µM in test [1] (setting [4]) was determined as 11%. In addition, the activity at 1000 µM in test [1] (setting [5]) worked out at 0%.
